In PubChem BioAssay AID328 (DTP/NCI, 2004):
Values joined by “and” are separate entries in the source; they are usually repeats but may differ in a detail not shown here. Identical values can stand only once. Inconclusive results and toxic doses are left out.

Test system: BDF1 mice, P388 leukemia ip, median survival T/C
Experiment: NCI In Vivo Anticancer Drug Screen. Data for tumor model P388 Leukemia (intraperitoneal) in B6D2F1 (BDF1) mice
Settings: endpoint: median survival time, higher = longer survival
Outline: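 Antitumour effect was judged in vivo: survival in drug-treated mice, normalised to that of vehicle-dosed controls, gives the reported T/C.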

[1] = dose: 0.78 mg/kg/injection, schedule: Q01DX009 (ip), vehicle: saline
[2] = dose: 1.56 mg/kg/injection, schedule: Q01DX009 (ip), vehicle: saline
[3] = dose: 50.0 mg/kg/injection, schedule: Q01DX009 (ip), vehicle: saline with Tween-80
[4] = dose: 100.0 mg/kg/injection, schedule: Q01DX009 (ip), vehicle: saline with Tween-80
[5] = dose: 200.0 mg/kg/injection, schedule: Q01DX009 (ip), vehicle: saline with Tween-80
[6] = dose: 12.5 mg/kg/injection, schedule: Q01DX009 (ip), vehicle: saline with Tween-80
[7] = dose: 25.0 mg/kg/injection, schedule: Q01DX009 (ip), vehicle: saline with Tween-80
[8] = dose: 50.0 mg/kg/injection, schedule: Q04DX003 (ip), vehicle: saline
[9] = dose: 100.0 mg/kg/injection, schedule: Q04DX003 (ip), vehicle: saline with Tween-80
[10] = dose: 100.0 mg/kg/injection, schedule: Q04DX003 (ip), vehicle: saline
[11] = dose: 6.25 mg/kg/injection, schedule: Q01DX009 (ip), vehicle: saline
[12] = dose: 50.0 mg/kg/injection, schedule: Q01DX009 (ip), vehicle: saline
[13] = dose: 100.0 mg/kg/injection, schedule: Q01DX009 (ip), vehicle: saline

In the case of COc1ccc(NC(=O)Nc2ccccc2F)cc1, the T/C (dose: 100.0 mg/kg/injection, schedule: Q01DX001 (ip), vehicle: saline with Tween-80) is reported as 95 % of control, the T/C (dose: 200.0 mg/kg/injection, schedule: Q01DX001 (ip), vehicle: saline with Tween-80) is reported as 95 % of control and the T/C (dose: 400.0 mg/kg/injection, schedule: Q01DX001 (ip), vehicle: saline with Tween-80) is reported as 95 % of control.

CC(=O)CC(C)=O.CC(=O)CC(C)=O.CC(C)c1ncc[nH]1.O=N[O-].[Co] was tested, and the T/C (dose: 100.0 mg/kg/injection, schedule: Q04DX002 (ip), vehicle: saline with Tween-80) was 105 % of control and the T/C (dose: 200.0 mg/kg/injection, schedule: Q04DX002 (ip), vehicle: saline with Tween-80) was 107 % of control.

CCCCCCCCCCCC[N+](C)(C)Cc1ccccc1 was tested, and the T/C (dose: 0.43 mg/kg/injection, schedule: Q04DX003 (ip), vehicle: saline) was 90 % of control, the T/C [1] was 109 % of control and the T/C (dose: 0.87 mg/kg/injection, schedule: Q04DX003 (ip), vehicle: saline) was 100 % of control. For the same compound, the T/C [2] was 109 % of control, the T/C (dose: 1.75 mg/kg/injection, schedule: Q04DX003 (ip), vehicle: saline) was 100 % of control and the T/C (dose: 2.05 mg/kg/injection, schedule: Q01DX009 (ip), vehicle: saline) was 161 % of control. The T/C (dose: 3.5 mg/kg/injection, schedule: Q04DX003 (ip), vehicle: saline) was 109 % of control.

With OCC(O)C(O)C(O)CO (centres undefined) the T/C (dose: 100.0 mg/kg/injection, schedule: Q01DX010 (ip), vehicle: saline) was 100 % of control and the T/C (dose: 400.0 mg/kg/injection, schedule: Q01DX010 (ip), vehicle: saline) was 100 % of control.

CCC1CCCC1O (centres undefined) was tested, and the T/C [3] was 101 % of control, the T/C [4] was 102 % of control and the T/C [5] was 100 % of control.

With Nc1nc(N)c2cc(S(=O)(=O)c3cccc(C(F)(F)F)c3)ccc2n1 the T/C [3] was 95 % of control, the T/C [4] was 111 % of control and the T/C [5] was 120 % of control.

In the case of C=C1N(c2nc(Cl)nc(Cl)n2)c2ccccc2C1(C)C, the T/C [6] is reported as 109 % of control and 111 % of control, the T/C [7] is reported as 108 % of control and 112 % of control and the T/C [3] is reported as 116 % of control.

Nc1ncc(-c2ccc(CNc3ccc(C(=O)NC(CC(=O)O)CC(=O)O)cc3)cc2)c(N)n1 was tested, and the T/C (dose: 2.0 mg/kg/injection, schedule: Q04DX003 (ip), vehicle: saline) was 113 % of control, the T/C (dose: 5.0 mg/kg/injection, schedule: Q04DX003 (ip), vehicle: saline) was 104 % of control and the T/C (dose: 10.0 mg/kg/injection, schedule: Q04DX003 (ip), vehicle: saline) was 104 % of control. For the same compound, the T/C (dose: 20.0 mg/kg/injection, schedule: Q04DX003 (ip), vehicle: saline) was 109 % of control, the T/C (dose: 30.0 mg/kg/injection, schedule: Q04DX003 (ip), vehicle: saline) was 118 % of control and the T/C (dose: 50.0 mg/kg/injection, schedule: Q04DX003 (ip), vehicle: saline with Tween-80) was 157 % of control. The T/C [8] was 177 % of control, the T/C [9] was 242 % of control and the T/C [10] was 213 % of control.

With CCOC(=O)c1ccnc2ccc(O)cc12 the T/C [9] was 91 % of control, the T/C (dose: 200.0 mg/kg/injection, schedule: Q04DX003 (ip), vehicle: saline with Tween-80) was 108 % of control and the T/C (dose: 400.0 mg/kg/injection, schedule: Q04DX003 (ip), vehicle: saline with Tween-80) was 95 % of control.

With CCCCOc1cc(C(=O)NCCN(CC)CC)c2ccccc2n1 the T/C (dose: 6.25 mg/kg/injection, schedule: Q04DX003 (ip), vehicle: saline with Tween-80) was 100 % of control, the T/C (dose: 12.5 mg/kg/injection, schedule: Q04DX003 (ip), vehicle: saline with Tween-80) was 109 % of control and the T/C (dose: 25.0 mg/kg/injection, schedule: Q04DX003 (ip), vehicle: saline with Tween-80) was 109 % of control.

In the case of CCNC(C)(C)C(Cl)c1cccs1 (centres undefined), the T/C [1] is reported as 101 % of control, the T/C [2] is reported as 110 % of control and the T/C (dose: 3.12 mg/kg/injection, schedule: Q01DX009 (ip), vehicle: saline) is reported as 90 % of control. For the same compound, the T/C [11] was 92 % of control and 106 % of control, the T/C (dose: 25.0 mg/kg/injection, schedule: Q01DX009 (ip), vehicle: saline) was 87 % of control and the T/C [12] was 87 % of control and 112 % of control. The T/C [8] was 100 % of control, the T/C [13] was 114 % of control and the T/C [10] was 118 % of control. The T/C (dose: 200.0 mg/kg/injection, schedule: Q04DX003 (ip), vehicle: saline) was 86 % of control.

With CCO/C=C1\SC(=S)N(c2ccccc2C)C1=O the T/C (dose: 8.8 mg/kg/injection, schedule: Q04DX003 (ip), vehicle: saline with Tween-80) was 100 % of control, the T/C (dose: 13.2 mg/kg/injection, schedule: Q04DX003 (ip), vehicle: saline with Tween-80) was 104 % of control and the T/C (dose: 20.0 mg/kg/injection, schedule: Q04DX003 (ip), vehicle: saline with Tween-80) was 100 % of control. The T/C (dose: 25.0 mg/kg/injection, schedule: Q01DX009 (ip), vehicle: Klucel (hydroxypropylcellulose) (HPC)) was 101 % of control, the T/C (dose: 30.0 mg/kg/injection, schedule: Q04DX003 (ip), vehicle: saline with Tween-80) was 104 % of control and the T/C (dose: 88.0 mg/kg/injection, schedule: Q04DX003 (ip), vehicle: saline with Tween-80) was 122 % of control. The T/C (dose: 300.0 mg/kg/injection, schedule: Q04DX003 (ip), vehicle: saline with Tween-80) was 163 % of control.

With O=C(/C=C/c1c(Cl)cccc1Cl)c1ccc(Cl)cc1 the T/C [4] was 86 % of control, the T/C [5] was 90 % of control and the T/C (dose: 400.0 mg/kg/injection, schedule: Q01DX009 (ip), vehicle: saline with Tween-80) was 104 % of control.

For C[As](C)(=S)[As](C)(C)=S, the T/C (dose: 6.25 mg/kg/injection, schedule: Q01DX009 (ip), vehicle: saline with Tween-80) was 116 % of control, the T/C [6] was 114 % of control and the T/C [7] was 119 % of control.

With C/C(=N\NC(=S)N(C)C)c1ccccn1 the T/C (dose: 1.56 mg/kg/injection, schedule: Q01DX009 (ip), vehicle: saline with Tween-80) was 105 % of control and the T/C (dose: 3.12 mg/kg/injection, schedule: Q01DX009 (ip), vehicle: saline with Tween-80) was 100 % of control.

With COc1cc2ccc3c(c2cc1OC)C=NCC3 the T/C [2] was 100 % of control, the T/C (dose: 1.56 mg/kg/injection, schedule: Q04DX003 (ip), vehicle: saline) was 95 % of control and the T/C (dose: 3.13 mg/kg/injection, schedule: Q01DX009 (ip), vehicle: saline) was 110 % of control. The T/C (dose: 3.13 mg/kg/injection, schedule: Q04DX003 (ip), vehicle: saline) was 100 % of control, the T/C [11] was 110 % of control and the T/C (dose: 6.25 mg/kg/injection, schedule: Q04DX003 (ip), vehicle: saline) was 104 % of control.

N=c1scc(CC(=O)O)n1N was tested, and the T/C [12] was 92 % of control, the T/C [13] was 108 % of control and the T/C (dose: 200.0 mg/kg/injection, schedule: Q01DX009 (ip), vehicle: saline) was 92 % of control.

In the case of O=C(O)CSc1cc(-c2ccc(Cl)cc2)s[s+]1, the T/C (dose: 1.56 mg/kg/injection, schedule: Q01DX009 (ip), vehicle: water) is reported as 104 % of control, the T/C (dose: 2.0 mg/kg/injection, schedule: Q04DX003 (ip), vehicle: water) is reported as 100 % of control and the T/C (dose: 3.12 mg/kg/injection, schedule: Q01DX009 (ip), vehicle: water) is reported as 115 % of control. The T/C (dose: 4.0 mg/kg/injection, schedule: Q04DX003 (ip), vehicle: water) was 112 % of control, the T/C (dose: 6.25 mg/kg/injection, schedule: Q01DX009 (ip), vehicle: water) was 112 % of control and the T/C (dose: 6.25 mg/kg/injection, schedule: Q04DX003 (ip), vehicle: water) was 117 % of control. For the same compound, the T/C (dose: 8.0 mg/kg/injection, schedule: Q04DX003 (ip), vehicle: water) was 100 % of control, the T/C (dose: 12.5 mg/kg/injection, schedule: Q01DX009 (ip), vehicle: water) was 107 % of control and the T/C (dose: 12.5 mg/kg/injection, schedule: Q04DX003 (ip), vehicle: water) was 100 % of control. The T/C (dose: 16.0 mg/kg/injection, schedule: Q04DX003 (ip), vehicle: water) was 90 % of control, the T/C (dose: 25.0 mg/kg/injection, schedule: Q04DX003 (ip), vehicle: water) was 97 % of control and the T/C (dose: 50.0 mg/kg/injection, schedule: Q04DX003 (ip), vehicle: water) was 97 % of control.

In the case of CC(C)CCCCCCCCCCCCC(=O)NCC(=O)NC1C(O)C(O)C(Nc2ncnc3nc[nH]c23)OC1C(O)CO (centres undefined), the T/C (dose: 0.09 mg/kg/injection, schedule: Q01DX010 (ip), vehicle: carboxymethylcellulose (CMC)) is reported as 160 % of control, the T/C (dose: 0.13 mg/kg/injection, schedule: Q01DX010 (ip), vehicle: steriod suspending solution) is reported as 90 % of control and the T/C (dose: 0.18 mg/kg/injection, schedule: Q01DX010 (ip), vehicle: carboxymethylcellulose (CMC)) is reported as 180 % of control. The T/C (dose: 0.37 mg/kg/injection, schedule: Q01DX010 (ip), vehicle: carboxymethylcellulose (CMC)) was 175 % of control and the T/C (dose: 0.37 mg/kg/injection, schedule: Q01DX010 (ip), vehicle: steriod suspending solution) was 165 % of control.
